Test: gradient 5% acetonitrile 3 min, to 50% in 2 min, to 85% in 15 min, held 3 min, 100 µL/min
Conditions: column: Zorbax Extend-C18 2.1 x 50 mm; eluents: water / acetonitrile, 0.1% formic acid
Summary of the method: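 Retention time was recorded from adduct peaks, which were picked computationally and each inspected manually. Pure standards ran in mixtures of ~100 molecules on HPLC coupled to a quadrupole time-of-flight mass spectrometer, in positive and negative ionization mode, through a Zorbax Extend-C18 column (2.1 × 50 mm, 1.8 μm) at 100 μL/min. Eluents were water and acetonitrile, each with 0.1% formic acid.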

| RP-LC retention time | SMILES |
| --- | --- |
| 763 s | COc1cccc(NC(=O)Cn2c(=O)c3cc(C4CC4)nn3c3ncccc32)c1 |
| 601 s | CN1CCC(OC2CCN(C(=O)c3ccc(Cl)cc3)CC2)CC1 |
| 754 s | COC(=O)N1CCc2ccc(F)cc2C1C(=O)Nc1cccc2nsnc12 (configuration not stated) |
| 602 s | Cn1c(CNC(=O)C2CCc3sc(C(=O)N4CCCC4)cc3C2)nc2ccccc21 (configuration not stated) |
| 762 s | Cc1cc(NC(=O)CSc2nnc(Cc3cccn3C)n2CCc2ccccc2)no1 |
| 688 s | COc1ccc(OC)c(CNC(=O)c2c(C)sc3ccn(C)c(=O)c23)c1 |
| 655 s | CCCN(C)C(=O)C1CCCN(c2cnc3nccnc3c2)C1 (configuration not stated) |
| 773 s | O=C(NCc1nnnn1-c1ccc(Cl)cc1)c1ccc(S(=O)(=O)N2CCCC2)cc1 |
| 985 s | CCn1c(=O)sc2cc(S(=O)(=O)N3CCC(C(=O)Nc4ccc(C(C)C)cc4)CC3)ccc21 |
| 728 s | Cc1ccc(NCCCc2ccccc2)c(N)c1 |
| 650 s | Cn1cc(CCN2CCN(S(=O)(=O)c3cccc(Cl)c3)CC2)c2cccnc21 |
| 650 s | O=C(NCc1cc(F)ccc1F)c1ccc2ncnc(N3CCCC3)c2c1 |
| 658 s | CC1CCCCN1Cc1nc(Cn2ccn3nc(-c4ccccc4)cc3c2=O)no1 (configuration not stated) |
| 721 s | COc1ccc(NS(=O)(=O)/C=C/c2ccccc2)cc1N1CCCC1=O |
| 602 s | CCn1c(=O)c(SCC(=O)NCCCN2CCCCC2C)nc2ccccc21 (configuration not stated) |
| 843 s | CCSc1ccccc1C(=O)NCC1(c2ccccc2OC)CCOCC1 |
| 644 s | O=C(NCCCn1cccc1)c1ccno1 |
| 792 s | O=S(=O)(Nc1ccc(F)cc1)c1cccc2cccnc12 |
| 825 s | CCCNC(=O)N1CCc2c(c(-c3nc(-c4ccccc4)no3)nn2C)C1 |
| 958 s | O=C1CC(c2noc(-c3cccc(F)c3)n2)CN1c1ccccc1 (configuration not stated) |
| 784 s | COc1cc(Cl)c(NS(=O)(=O)c2cc(-c3c(C)noc3NC(C)=O)ccc2OC)c(OC)c1 |
| 927 s | Cc1csc(-c2cc(S(=O)(=O)Nc3ccc(F)c(F)c3)cn2CC(=O)N2CCCC2)n1 |
| 765 s | Fc1cccc(F)c1-c1nc(-c2ccc3nncn3c2)no1 |

| RP-LC retention time | SMILES |
| --- | --- |
| 950 s | CC(C)CCNC(=O)C1(C)CCc2ccccc2C(=O)N1CCc1c[nH]c2ccccc12 (configuration not stated) |
| 584 s | O=C(NCc1cccc(F)c1)c1cn2c(n1)CCCC2 |
| 800 s | Cc1cccc(NC(=O)c2ccc(=O)n(Cc3ccc(F)cc3)n2)n1 |
| 1010 s | CCOC(=O)c1nc(N(C)c2cc(C)ccc2C)c2ccccc2n1 |
| 920 s | CCc1noc(NC(C)=O)c1-c1ccc(C)c(S(=O)(=O)N2CCc3ccccc32)c1 |
| 768 s | Cc1ccc(CNC(=O)N2CCC(N3CCN(Cc4ccccc4)C(=O)C3=O)CC2)cc1 |
| 590 s | Cc1cc(N2CCC(C)CC2)n2nc(CN3CCN(C(C)C)CC3)nc2n1 |
| 821 s | COCCn1cc(CCNC(=O)Nc2ccc(Br)c(C)c2)c2cccnc21 |
| 610 s | NC(=O)COc1cc(-c2ccccc2)nc2ccc(NC(=O)C3CC3)cc12 |
| 1020 s | COc1cccc(-c2noc(C3CC(=O)N(c4cc(C)cc(C)c4)C3)n2)c1OC (configuration not stated) |
| 700 s | O=C1NCCCCCCN(Cc2ccc(C(F)(F)F)cc2)[C@H]2CCC[C@@H]12 |
| 946 s | CCCCN(C)C(=O)Cn1cncc(-c2nc(-c3ccccc3)cs2)c1=O |
| 1060 s | CCOc1ccccc1C(=O)Nc1ccc2c(c1)N(CCOC)CCC2 |
| 631 s | Cn1c(N2CCC(C(=O)NCCCN3CCC(Cc4ccccc4)CC3)CC2)cc(=O)n(C)c1=O |
| 907 s | CCCOC(=O)C1=C(C)NC2=C(C(=O)C(C(=O)OC)C(C)C2)C1c1ccc(OC)cc1 (configuration not stated) |
| 863 s | CCOC(=O)c1c(C)[nH]c(C(=O)N2CCCC(C(=O)NCc3cccc(C)c3)C2)c1C (configuration not stated) |
| 763 s | CCOc1cc(=O)n2c(c1C(=O)Nc1cc(OC)c(Cl)cc1OC)CCCC2 |
| 646 s | CC(C)(C)NC(=O)N1CC(n2cc(C(=O)N3CCOCC3)nn2)C1 |
| 645 s | O=C(NCc1cccc(F)c1)C1CCCN(c2nnc3ccc(Cl)cn23)C1 (configuration not stated) |
| 618 s | Cc1cc2n(n1)CCC(=O)N2CCCC(=O)NCCCOC(C)C |
| 597 s | O=C(Cn1nc(C(=O)N2CCCC2)c2ccccc21)N1CCN(C2CCCCC2)CC1 |
| 939 s | O=C(Cc1ccccc1Br)N1CCN(c2cc(-c3ccc(Cl)cc3)[nH]n2)CC1 |
| 534 s | Cc1ccc(CNC(=O)Nc2cnc3c(c2)CCC3)cc1 |

| RP-LC retention time | SMILES |
| --- | --- |
| 695 s | CCN(CC)C(=O)c1ccc(-c2nc3cc(NS(=O)(=O)c4ccccc4Cl)ccc3n2C)cc1 |
| 776 s | Cc1cc(OCC(=O)Nc2ccc3c(c2)OCO3)nc(N2CCN(c3ccccc3)CC2)n1 |
| 696 s | CCn1cc(CC(=O)Nc2ccc(OC)cc2)c2cccnc21 |
| 772 s | CC1CCCN(c2ccn3c(=O)n(CC(=O)NCc4ccc(F)cc4F)nc3n2)C1 (configuration not stated) |
| 776 s | Cc1nn(C)c(=O)c2cc(S(=O)(=O)NCc3ccccc3)cn12 |
| 1050 s | COc1ccc(-c2csc3c(=O)n(Cc4cccc(F)c4)cnc23)cc1 |
| 779 s | Cc1nnc([C@@H]2CC(F)(F)CN2C(=O)COc2ccc(Cl)cc2)o1 |
| 937 s | COc1ccc(-c2cc3c4nn(CC(=O)N5CCCc6ccccc65)c(=O)n4ccn3n2)cc1 |
| 740 s | Cc1nc(CC(=O)Nc2ccc(F)cc2Cl)sc1C(=O)NC1CC1 |
| 642 s | O=S(=O)(c1cc(-c2nnc(C3CCC3)o2)co1)N1CCC(N2CCCCC2)CC1 |
| 740 s | O=C(Nc1ccc(CC(=O)N2CCOCC2)cc1)NC(c1ccccc1)c1ccccc1 |
| 842 s | Cn1nc(-c2nc(C3CC3)no2)c2c1CCN(C(=O)c1cc(F)ccc1Cl)C2 |
| 839 s | COc1ccccc1-c1nnc(SCC(=O)N2CCc3ccccc32)o1 |
| 885 s | O=C(Cn1nc2c(Oc3cccc(F)c3)nccn2c1=O)Nc1cc(F)ccc1F |
| 652 s | CCCNC(C)C(=O)Nc1c(C)csc1C(=O)OC (configuration not stated) |
| 590 s | O=C(NCCCN1CCOCC1)c1ccc(-c2c(-c3ccc(F)cc3)ncn2C2CCCC2)o1 |
| 727 s | CCOc1cc2ncc(C#N)c(Nc3ccc(F)c(Cl)c3)c2cc1NC(=O)/C=C/CN(C)C |
| 850 s | CCCN(CC1CCOC1)S(=O)(=O)c1cccc(F)c1 (configuration not stated) |
| 746 s | Cc1ccc(C)c(NC(=O)C(=O)NCC(c2ccc3c(c2)CCCN3C)N2CCCC2)c1 (configuration not stated) |
| 808 s | CC(=O)Nc1nc(-c2ccc(C)cc2C)cs1 |
| 834 s | Cn1ncc2c3ccccc3n(CCCC(=O)NCCc3cccs3)c2c1=O |
